From patent US10882860B2, “Treatment of osteoarthritis” (Samumed, LLC, priority 2015, dated 2021)
Converted amounts (≈) assume the structure as drawn. Like-named read-outs stand apart in the source and are kept apart here. Marks after values point to notes of the source that are not given here.

How the values were obtained:
Format in all cases: physicochemical
[1] = Competitive slurry experiments between polymorph forms (thermodynamic stability); conditions: for most stable form in competitive slurry: 15 forms mixed (10 mg each), RT and 50° C., 3-5 days
Procedure: In order to find out the thermodynamic stability between the different forms, several competitive slurry experiments were carried out. Form 1, Form 2, Form 2*, Form 3, Form 4, Form 4*, Form 4**, Form 5, Form 7, Form 8, Form 9, Form 10, Form 11, Form 11*, and Form 13 (10 mg for each) was mixed and slurried in 2 mL of solvent at both RT and 50° C. The solids were slurried for 3-5 days and then analyzed by XRD.
In order to find out the thermodynamic stability between Form 13 and Form 9, several competitive slurry experiments were carried out. 15 mg of Form 1, Form 9 and Form 13 solid were mixed in 1 mL of toluene, IPAc, and n-butyl acetate, and slurried for 3 days at RT and 50° C.
The residual solid was analyzed by XRD.

[2] = Dynamic vapor sorption (DVS) and exposure to humidity/air of solid forms
Procedure: The hydrate lost its water below 30% RH.
The purity of the Form 13 sample was 98.8%; the KF of an undried Form 13 sample was 35.7%.
Solvates 1 and 2 solids were exposed to air overnight, and then analyzed by XRD. After the analysis, the solids were dried at 50° C. under vacuum, and then analyzed by XRD again.

[3] = Slurry experiments in various solvents (polymorph screen)
Procedure: Slurry experiments in various solvents were performed. Approximately 30-80 mg of the starting solid (a non-stoichiometric hydrate of Form 1 having between 1% and about 20% by weight water) was slurried in 39 different solvents (pure and binary solvents; the ratio of organic solvent/water (V/V) was 95%/5%) at RT and 50° C. for 5 days. Three solvates, […], and eleven non-solvated forms were identified. […] XRD of both wet and dry samples were scanned (FIG. 12A (dry sample)).
The slurry experiments identified 3 solvated forms from wet samples (Solvates 1, 2, and 3); 2 non-stoichiometric hydrates of Form 1 (Forms 12 and 13); and 11 non-solvated forms (Forms 1-11). In some instances, similar XRD scans with minor differences were obtained. These were considered to be part of the same class (e.g., the same form). For example, XRD scans of Form 2 and Form 2* were similar and were considered to belong to the same class. The solvated forms were obtained from wet sample analysis; after drying, the sample indicated a different XRD.

[4] = Solubility of the starting solid by the gravimetric method; conditions: for solubility: thermodynamic from solid
[5] = slurry in EtOH/water (5% water), 50° C.
[6] = slurry in n-Butyl acetate, 50° C.
[7] = slurry in n-Propanol/water (5% water), 50° C.
[8] = slurry in DMSO/water (5% water), 50° C.
[9] = slurry in DMSO/water (5% water), RT
[10] = slurry in DMF/water (5% water), 50° C.
[11] = slurry in DMF/water (5% water), RT

CC(C)CC(=O)Nc1cncc(-c2ccc3[nH]nc(-c4nc5c(-c6cccc(F)c6)cncc5[nH]4)c3c2)c1 [Form 4]
most stable form in competitive slurry ([1]; EA): most stable

CC(C)CC(=O)Nc1cncc(-c2ccc3[nH]nc(-c4nc5c(-c6cccc(F)c6)cncc5[nH]4)c3c2)c1 [Form 9]
change of form before and after the DVS scan ([2]; XRD before/after DVS): did not change its form | Dry (solid form by XRD after slurry) [3, 5]: Form 9 | Wet (solid form by XRD after slurry) [3, 5]: Form 9 | Dry (solid form by XRD after slurry) ([3]; slurry in IPAc, 50° C.): Form 9 | Wet (solid form by XRD after slurry) ([3]; slurry in IPAc, 50° C.): Form 9 | Dry (solid form by XRD after slurry) ([3]; slurry in n-Butanol, 50° C.): Form 9 | Wet (solid form by XRD after slurry) ([3]; slurry in n-Butanol, 50° C.): Form 9 | Dry (solid form by XRD after slurry) ([3]; slurry in n-Butanol, RT): Form 9 | Wet (solid form by XRD after slurry) ([3]; slurry in n-Butanol, RT): Form 9 | Dry (solid form by XRD after slurry) [3, 6]: Form 9 | Wet (solid form by XRD after slurry) [3, 6]: Form 9 | Dry (solid form by XRD after slurry) [3, 7]: Form 9 | Wet (solid form by XRD after slurry) [3, 7]: Form 9

CC(C)CC(=O)Nc1cncc(-c2ccc3[nH]nc(-c4nc5c(-c6cccc(F)c6)cncc5[nH]4)c3c2)c1 [Form 1]
form change when exposed to air ([2]; exposed to air): converts to Form 13

CC(C)CC(=O)Nc1cncc(-c2ccc3[nH]nc(-c4nc5c(-c6cccc(F)c6)cncc5[nH]4)c3c2)c1 [Solvate 2]
form change after exposure to air overnight (XRD) [2]: changed a little

CC(C)CC(=O)Nc1cncc(-c2ccc3[nH]nc(-c4nc5c(-c6cccc(F)c6)cncc5[nH]4)c3c2)c1 [Form 10]
Dry (solid form by XRD after slurry) ([3]; slurry in DMSO, 50° C.): Form 10* | Wet (solid form by XRD after slurry) ([3]; slurry in DMSO, 50° C.): amorphous | Dry (solid form by XRD after slurry) ([3]; slurry in DMSO, RT): Form 10 | Wet (solid form by XRD after slurry) ([3]; slurry in DMSO, RT): amorphous | Dry (solid form by XRD after slurry) [3, 8]: Form 10 | Wet (solid form by XRD after slurry) [3, 8]: amorphous | Dry (solid form by XRD after slurry) [3, 9]: Form 10 | Wet (solid form by XRD after slurry) [3, 9]: amorphous

CC(C)CC(=O)Nc1cncc(-c2ccc3[nH]nc(-c4nc5c(-c6cccc(F)c6)cncc5[nH]4)c3c2)c1 [Form 11]
Dry (solid form by XRD after slurry) ([3]; slurry in DMF, 50° C.): Form 11* | Wet (solid form by XRD after slurry) ([3]; slurry in DMF, 50° C.): Form 11 | Dry (solid form by XRD after slurry) ([3]; slurry in DMF, RT): Form 11 | Wet (solid form by XRD after slurry) ([3]; slurry in DMF, RT): Form 11 | Dry (solid form by XRD after slurry) [3, 10]: Form 11 | Wet (solid form by XRD after slurry) [3, 10]: Form 11 | Dry (solid form by XRD after slurry) [3, 11]: Form 11 | Wet (solid form by XRD after slurry) [3, 11]: Form 11

CC(C)CC(=O)Nc1cncc(-c2ccc3[nH]nc(-c4nc5c(-c6cccc(F)c6)cncc5[nH]4)c3c2)c1 [Form 1, Form 9 and Form 13]
Form after 3 days; wet/dry ([1]; 50° C., IPAc): Form 9/Form 9 | Form after 3 days; wet/dry ([1]; 50° C., Toluene): Form 9 + Form 13/Form 9 + Form 1 | Form after 3 days; wet/dry ([1]; 50° C., n-Butyl acetate): Form 9 + Form 13/Form 9 + Form 1 | Form after 3 days; wet/dry ([1]; RT, IPAc): Form 9 + Form 13/Form 9 + Form 1 | Form after 3 days; wet/dry ([1]; RT, Toluene): Form 13/Form 1 | Form after 3 days; wet/dry ([1]; RT, n-Butyl acetate): Form 9 + Form 13/Form 9 + Form 1

CC(C)CC(=O)Nc1cncc(-c2ccc3[nH]nc(-c4nc5c(-c6cccc(F)c6)cncc5[nH]4)c3c2)c1 [Form 13]
most stable form in competitive slurry ([1]; water): most stable

CC(C)CC(=O)Nc1cncc(-c2ccc3[nH]nc(-c4nc5c(-c6cccc(F)c6)cncc5[nH]4)c3c2)c1 [starting solid]
Solubility (gravimetric method) ([4]; RT and 50° C., all solvents tested except DMF and DMSO): low solubility | solubility ([4]; organic solvent or mixture, Acetic acid, 50° C., read-out: Solubility at 50° C.): 3000 µg/mL (≈ 5930 µM) | solubility ([4]; organic solvent or mixture, Acetone, 50° C., read-out: Solubility at 50° C.): 1000 µg/mL (≈ 1980 µM) | solubility ([4]; organic solvent or mixture, Acetone, RT, read-out: Solubility at RT): 1000 µg/mL (≈ 1980 µM) | solubility ([4]; organic solvent or mixture, DCM, 50° C., read-out: Solubility at 50° C.): 2000 µg/mL (≈ 3960 µM) | solubility ([4]; organic solvent or mixture, DCM, RT, read-out: Solubility at RT): 2000 µg/mL (≈ 3960 µM) | solubility ([4]; organic solvent or mixture, DMF, 50° C., read-out: Solubility at 50° C.): 16000 µg/mL (≈ 31600 µM) | solubility ([4]; organic solvent or mixture, DMF, RT, read-out: Solubility at RT): 12000 µg/mL (≈ 23700 µM) | solubility ([4]; organic solvent or mixture, EA, 50° C., read-out: Solubility at 50° C.): 1000 µg/mL (≈ 1980 µM) | solubility ([4]; organic solvent or mixture, EA, RT, read-out: Solubility at RT): 1000 µg/mL (≈ 1980 µM) | solubility ([4]; organic solvent or mixture, EtOH, 50° C., read-out: Solubility at 50° C.): 2000 µg/mL (≈ 3960 µM) | solubility ([4]; organic solvent or mixture, EtOH, RT, read-out: Solubility at RT): 2000 µg/mL (≈ 3960 µM) | solubility ([4]; organic solvent or mixture, IPA, 50° C., read-out: Solubility at 50° C.): 5000 µg/mL (≈ 9890 µM) | solubility ([4]; organic solvent or mixture, IPA, RT, read-out: Solubility at RT): 2000 µg/mL (≈ 3960 µM) | solubility ([4]; organic solvent or mixture, MEK, 50° C., read-out: Solubility at 50° C.): 1000 µg/mL (≈ 1980 µM) | solubility ([4]; organic solvent or mixture, MEK, RT, read-out: Solubility at RT): 1000 µg/mL (≈ 1980 µM) | solubility ([4]; organic solvent or mixture, MIBK, 50° C., read-out: Solubility at 50° C.): 1000 µg/mL (≈ 1980 µM) | solubility ([4]; organic solvent or mixture, MIBK, RT, read-out: Solubility at RT): 1000 µg/mL (≈ 1980 µM) | solubility ([4]; organic solvent or mixture, MeOH, 50° C., read-out: Solubility at 50° C.): 1000 µg/mL (≈ 1980 µM) | solubility ([4]; organic solvent or mixture, MeOH, RT, read-out: Solubility at RT): 1000 µg/mL (≈ 1980 µM) | solubility ([4]; organic solvent or mixture, Toluene, 50° C., read-out: Solubility at 50° C.): 1000 µg/mL (≈ 1980 µM) | solubility ([4]; organic solvent or mixture, Toluene, RT, read-out: Solubility at RT): 1000 µg/mL (≈ 1980 µM) | solubility ([4]; organic solvent or mixture, n-Butanol, 50° C., read-out: Solubility at 50° C.): 2000 µg/mL (≈ 3960 µM) | solubility ([4]; organic solvent or mixture, n-Butanol, RT, read-out: Solubility at RT): 1000 µg/mL (≈ 1980 µM) | solubility ([4]; organic solvent or mixture, n-Propanol, 50° C., read-out: Solubility at 50° C.): 2000 µg/mL (≈ 3960 µM) | solubility ([4]; organic solvent or mixture, n-Propanol, RT, read-out: Solubility at RT): 1000 µg/mL (≈ 1980 µM) | solubility ([4]; water, 50° C., read-out: Solubility at 50° C.): 1000 µg/mL (≈ 1980 µM) | solubility ([4]; water, RT, read-out: Solubility at RT): 1000 µg/mL (≈ 1980 µM)

CC(C)CC(=O)Nc1cncc(-c2ccc3[nH]nc(-c4nc5c(-c6cccc(F)c6)cncc5[nH]4)c3c2)c1 [Solvate 1]
form change after exposure to air overnight (XRD) [2]: converted to low crystallinity
